Among the data in patent US10919916B2, “Boron-containing small molecules” (Bill & Melinda Gates Foundation, priority 2016, dated 2021) are MIC and EC50 values, retold here.

Molecules are shown by their SMILES. Values after ≈ are worked out from the molar mass of the structure shown. Read-outs that look alike come from different tables or passages of the source.

What all share (type): cell-based
Assay [1] concerns Staphylococcus aureus, MRSA (ATCC 33591). Nature of the assay: Antibacterial MIC assay (microbroth dilution, CLSI). The note with it: read-out: MIC Staphylococcus aureus, MRSA (ATCC 33591). In a few lines:
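Microbroth dilution per CLSI M07-A10/M100-S25 in cation-adjusted Mueller-Hinton broth, with 3% lysed horse blood added for S. pneumoniae. Inoculum from a 0.5 McFarland direct colony suspension, diluted to 5×10^5 CFU/mL in the well. Compounds were 2-fold serially diluted; MIC read against a growth control.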

Assay [2] deals with Streptococcus pneumoniae (ATCC 49619). The description is as above. Summed up:
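CLSI broth microdilution: 2-fold compound dilutions in cation-adjusted Mueller-Hinton broth supplemented with 3% lysed horse blood for S. pneumoniae, inoculum 5×10^5 CFU/mL from a 0.5 McFarland direct colony suspension, with growth control.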

In assay [3] the test system is Wolbachia pipientis in C6/36 cell line. The assay is described as follows: Anti-Wolbachia high-content assay. The conditions noted are these: read-out: EC50 Wolbachia pipientis in C6/36 cell line. Here is the method: After 15 minutes, all media was removed from each well and fresh media (no stain) was added. Imaging of each well was accomplished using a Perkin Elmer Operetta high-content imaging system. Five fields per well were imaged using a confocal 60× objective with the Fluorescein filter (excitation filter: 460-490 nm; emission filter: 500-550 nm). Images were analyzed using the Perkin Elmer Harmony software to score each intact cell on the basis of texture complexity of the cytoplasm. Full details can be found in: […]. et al, J. Biomol.

[4] abbreviates: ATCC49619, read-out: MIC Streptococcus pneumoniae (ATCC 49619).
The mark [5] stands for this setting: microbroth dilution, cation-adjusted Mueller-Hinton broth, 35° C. for 16-20 hours.
[6] abbreviates: ATCC49619, microbroth dilution, 3% lysed horse blood, 35° C. for 16-20 hours, read-out: MIC Streptococcus pneumoniae (ATCC 49619).
Setting [7] is: C6/36 (wAlbB) cells, 7 days at 26° C., 50% reduction of Wolbachia.

A word on the MIC: it is the lowest concentration found to suppress growth. For the molecule `C=C[C@]1(C)C[C@@H](OC(=O)COc2cc(CNC(=O)OC(C)(C)C)c3c(c2Cl)B(O)OC3)[C@]2(C)[C@H](C)CC[C@]3(CCC(=O)[C@H]32)[C@@H](C)[C@@H]1O` [Compound 7, (3aR,4R,5R,7S,8S,9R,9aS,12R)-8-hydroxy-4,7,9,12-tetramethyl-3-oxo-7-vinyldecahydro-4,9a-propanocyclopenta[8]annulen-5-yl 2-((4-(((tert-butoxycarbonyl)amino)methyl)-7-chloro-1-hydroxy-1,3-dihydrobenzo[c][1,2]oxaborol-6-yl)oxy)acetate], the MIC in assay [1] lay within 0.5 to 2 µg/mL (≈ 0.742 to 2.97 µM); in assay [2] (setting [4]), 4 to 32 µg/mL (≈ 5.93 to 47.5 µM). Further, in assay [3] (C6/36, […]), the EC50 amounted to 0.428 µM.
`C=C[C@]1(C)C[C@@H](OC(=O)COc2cc(CN(C)C)c3c(c2)B(O)OC3)[C@]2(C)[C@H](C)CC[C@]3(CCC(=O)[C@H]32)[C@@H](C)[C@@H]1O.Cl` [Compound 13, (3aR,4R,5R,7S,8S,9R,9aS,12R)-8-hydroxy-4,7,9,12-tetramethyl-3-oxo-7-vinyldecahydro-4,9a-propanocyclopenta[8]annulen-5-yl 2-((4-((dimethylamino)methyl)-1-hydroxy-1,3-dihydrobenzo[c][1,2]oxaborol-6-yl)oxy)acetate Hydrochloride]: the MIC in assay [1] (setting [5]) was less than 0.25 µg/mL; in assay [2] (setting [6]), 0.5 to 2 µg/mL. The EC50 in assay [3] (setting [7]) amounted to 0.081 µM.
The matching figures for `C=C[C@]1(C)C[C@@H](OC(=O)COc2cc3c(c(C4CCN(C(=O)OC(C)(C)C)CC4)c2)COB3O)[C@]2(C)[C@H](C)CC[C@]3(CCC(=O)[C@H]32)[C@@H](C)[C@@H]1O` [Compound 17, tert-butyl 4-(1-hydroxy-6-(2-(((3aR,4R,5R,7S,8S,9R,9aS,12R)-8-hydroxy-4,7,9,12-tetramethyl-3-oxo-7-vinyldecahydro-4,9a-propanocyclopenta[8]annulen-5-yl)oxy)-2-oxoethoxy)-1,3-dihydrobenzo[c][1,2]oxaborol-4-yl)piperidine-1-carboxylate]: 0.5 to 2 µg/mL (≈ 0.721 to 2.88 µM), less than 0.25 µg/mL and 0.623 µM.
With `C=C[C@]1(C)C[C@@H](OC(=O)COc2cc3c(c(C4CCNCC4)c2)COB3O)[C@]2(C)[C@H](C)CC[C@]3(CCC(=O)[C@H]32)[C@@H](C)[C@@H]1O` [Compound 18, (3aR,4R,5R,7S,8S,9R,9aS,12R)-8-hydroxy-4,7,9,12-tetramethyl-3-oxo-7-vinyldecahydro-4,9a-propanocyclopenta[8]annulen-5-yl 2-((1-hydroxy-4-(piperidin-4-yl)-1,3-dihydrobenzo[c][1,2]oxaborol-6-yl)oxy)acetate], in assay [1] (setting [5]), the MIC lay in the range of 0.5 to 2 µg/mL (≈ 0.842 to 3.37 µM). Also, the EC50 in assay [3] (setting [7]) was more than 1 µM.
Regarding `C=C[C@]1(C)C[C@@H](OC(=O)COc2ccc3c(c2)B(O)OC3CNC(C)=O)[C@]2(C)[C@H](C)CC[C@]3(CCC(=O)[C@H]32)[C@@H](C)[C@@H]1O` (stereo partly drawn) [Compound 22, (3aR,4R,5R,7S,8S,9R,9aS,12R)-8-hydroxy-4,7,9,12-tetramethyl-3-oxo-7-vinyldecahydro-4,9a-propanocyclopenta[8]annulen-5-yl 2-((3-(acetamidomethyl)-1-hydroxy-1,3-dihydrobenzo[c][1,2]oxaborol-6-yl)oxy)acetate], the MIC in assay [1] (setting [5]) and in assay [2] (setting [6]) was 0.5 to 2 µg/mL (≈ 0.86 to 3.44 µM) each time. Besides, the EC50 in assay [3] (setting [7]) was more than 1 µM.
Regarding `C=C[C@]1(C)C[C@@H](OC(=O)COc2ccc3c(c2)B(O)OC3CNS(C)(=O)=O)[C@]2(C)[C@H](C)CC[C@]3(CCC(=O)[C@H]32)[C@@H](C)[C@@H]1O` (stereo partly drawn) [Compound 23, (3aR,4R,5R,7S,8S,9R,9aS,12R)-8-hydroxy-4,7,9,12-tetramethyl-3-oxo-7-vinyldecahydro-4,9a-propanocyclopenta[8]annulen-5-yl 2-((1-hydroxy-3-(methylsulfonamidomethyl)-1,3-dihydrobenzo[c][1,2]oxaborol-6-yl)oxy)acetate], the MIC in assay [1] (setting [5]) and in assay [2] (setting [6]) was 0.5 to 2 µg/mL (≈ 0.81 to 3.24 µM) throughout. The EC50 in assay [3] (setting [7]) came out at 0.613 µM.
For the molecule `C=C[C@]1(C)C[C@@H](OC(=O)COc2ccc3c(c2)B(O)OC3CC(=O)OC(C)(C)C)[C@]2(C)[C@H](C)CC[C@]3(CCC(=O)[C@H]32)[C@@H](C)[C@@H]1O` (stereo partly drawn) [Compound 24, tert-Butyl 2-(1-hydroxy-6-(2-(((3aR,4R,5R,7S,8S,9R,9aS,12R)-8-hydroxy-4,7,9,12-tetramethyl-3-oxo-7-vinyldecahydro-4,9a-propanocyclopenta[8]annulen-5-yl)oxy)-2-oxoethoxy)-1,3-dihydrobenzo[c][1,2]oxaborol-3-yl)acetate], the values for the MIC in assay [1] (setting [5]) and in assay [2] (setting [6]) were less than 0.25 µg/mL and 0.5 to 2 µg/mL (≈ 0.801 to 3.2 µM), respectively. Besides, the EC50 in assay [3] (setting [7]) is more than 1 µM.
Regarding `C=C[C@]1(C)C[C@@H](OC(=O)COc2ccc3c(c2)B(O)OC3CC(=O)O)[C@]2(C)[C@H](C)CC[C@]3(CCC(=O)[C@H]32)[C@@H](C)[C@@H]1O` (stereo partly drawn) [Compound 25, 2-(1-hydroxy-6-(2-(((3aR,4R,5R,7S,8S,9R,9aS,12R)-8-hydroxy-4,7,9,12-tetramethyl-3-oxo-7-vinyldecahydro-4,9a-propanocyclopenta[8]annulen-5-yl)oxy)-2-oxoethoxy)-1,3-dihydrobenzo[c][1,2]oxaborol-3-yl)acetic acid], the minimal inhibitory concentration (MIC) in assay [1] (setting [5]) and in assay [2] (setting [6]) was 0.5 to 2 µg/mL (≈ 0.88 to 3.52 µM) in each case. The EC50 in assay [3] (setting [7]) was more than 1 µM.
For the molecule `C=C[C@]1(C)C[C@@H](OC(=O)COc2ccc3c(c2)B(O)OC3CC(=O)OC)[C@]2(C)[C@H](C)CC[C@]3(CCC(=O)[C@H]32)[C@@H](C)[C@@H]1O` (stereo partly drawn) [Compound 26, (3aR,4R,5R,7S,8S,9R,9aS,12R)-8-hydroxy-4,7,9,12-tetramethyl-3-oxo-7-vinyldecahydro-4,9a-propanocyclopenta[8]annulen-5-yl 2-((1-hydroxy-3-(2-methoxy-2-oxoethyl)-1,3-dihydrobenzo[c][1,2]oxaborol-6-yl)oxy)acetate], the results for the MIC in assay [1] (setting [5]) and in assay [2] (setting [6]) were less than 0.25 µg/mL and 0.5 to 2 µg/mL (≈ 0.858 to 3.43 µM), respectively. Further, the EC50 in assay [3] (setting [7]) is more than 1 µM.
On the same counts, the results for `C=C[C@]1(C)C[C@@H](OC(=O)COc2ccc3c(c2)B(O)OC3CN(C)C)[C@]2(C)[C@H](C)CC[C@]3(CCC(=O)[C@H]32)[C@@H](C)[C@@H]1O` (stereo partly drawn) [Compound 27, (3aR,4R,5R,7S,8S,9R,9aS,12R)-8-hydroxy-4,7,9,12-tetramethyl-3-oxo-7-vinyldecahydro-4,9a-propanocyclopenta[8]annulen-5-yl 2-((3-((dimethylamino)methyl)-1-hydroxy-1,3-dihydrobenzo[c][1,2]oxaborol-6-yl)oxy)acetate] are less than 0.25 µg/mL, less than 0.25 µg/mL and 0.027 µM.
With `C=C[C@]1(C)C[C@@H](OC(=O)COc2ccc3c(c2)B(O)ON=C3)[C@]2(C)[C@H](C)CC[C@]3(CCC(=O)[C@H]32)[C@@H](C)[C@@H]1O` [Compound 96, (3aR,4R,5R,7S,8S,9R,9aS,12R)-8-hydroxy-4,7,9,12-tetramethyl-3-oxo-7-vinyldecahydro-4,9a-propanocyclopenta[8]annulen-5-yl 2-((1-hydroxy-1H-benzo[d][1,2,6]oxazaborinin-7-yl)oxy)acetate], the MIC in assay [1] was less than 0.25 µg/mL; in assay [2] (setting [4]) it was 0.5 to 2 µg/mL (≈ 0.955 to 3.82 µM).
For `C=C[C@]1(C)C[C@@H](OC(=O)COc2ccc3c(c2F)B(O)ON=C3)[C@]2(C)[C@H](C)CC[C@]3(CCC(=O)[C@H]32)[C@@H](C)[C@@H]1O` [Compound 97, (3aR,4R,5R,7S,8S,9R,9aS,12R)-8-hydroxy-4,7,9,12-tetramethyl-3-oxo-7-vinyldecahydro-4,9a-propanocyclopenta[8]annulen-5-yl 2-((8-fluoro-1-hydroxy-1H-benzo[d][1,2,6]oxazaborinin-7-yl)oxy)acetate], the MIC in assay [1] was less than 0.25 µg/mL; in assay [2] (setting [4]), 0.5 to 2 µg/mL (≈ 0.923 to 3.69 µM).
For `C=C[C@]1(C)C[C@@H](OC(=O)COc2cc3c(cn2)COB3O)[C@]2(C)[C@H](C)CC[C@]3(CCC(=O)[C@H]32)[C@@H](C)[C@@H]1O` [Compound 100, (3aR,4R,5R,7S,8S,9R,9aS,12R)-8-hydroxy-4,7,9,12-tetramethyl-3-oxo-7-vinyldecahydro-4,9a-propanocyclopenta[8]annulen-5-yl 2-((1-hydroxy-1,3-dihydro-[1,2]oxaborolo[4,3-c]pyridin-6-yl)oxy)acetate], the MIC in assay [1] (setting [5]) is more than 64 µg/mL. The EC50 in assay [3] (setting [7]) is more than 1 µM.
As to `C=C[C@]1(C)C[C@@H](OC(=O)COc2ccc3c(c2)NB(C)C=C3)[C@]2(C)[C@H](C)CC[C@]3(CCC(=O)[C@H]32)[C@@H](C)[C@@H]1O` [Compound 104, (3aR,4R,5R,7S,8S,9R,9aS,12R)-8-hydroxy-4,7,9,12-tetramethyl-3-oxo-7-vinyldecahydro-4,9a-propanocyclopenta[8]annulen-5-yl 2-((2-methyl-1,2-dihydrobenzo[e][1,2]azaborinin-7-yl)oxy)acetate], the MIC in assay [1] (setting [5]) is less than 0.25 µg/mL; in assay [2] (setting [6]) it was 0.5 to 2 µg/mL (≈ 0.962 to 3.85 µM).
